In BindingDB's records for doi:10.1016/j.ejmech.2019.111853 (Hangzhou Institute of Innovative Medicine, 2020):

Columns and labels:
[1] = Inhibition of CXCR2-mediated chemotaxis in mouse BAF3 cells
[2] = Antagonist activity at CXCR2 in human neutrophils assessed as reduction in GRO-alpha mediated chemotaxis

| Compound | IC50 [1] | IC50 [2] |
| --- | --- | --- |
| CC[C@@H](Nc1c(Nc2cccc(C(=O)N3CCN4CCC[C@H]4C3)c2O)c(=O)c1=O)c1ccc(C)o1 | 0.1 nM | – |
| COC(=O)CSc1ccc(C(=O)Nc2ccc(F)cc2)cn1 [[5-(4-Fluoro-phenylcarbamoyl)-pyridin-2-ylsulfanyl]-acetic acid methyl ester] | – | 42 nM |
